Measurements from the supplement of paper PMC10307832.

Key:
Test in all cases: relative viability (nuclei count vs DMSO), 5 days (fraction); higher = more cells survive
[1] = compound: C1CC(C1)(C(=O)O)C(=O)O.[NH2-].[NH2-].[Pt+2] [Carboplatin] + COc1cccc2cc(-c3nc([C@H]4CC[C@H](C(=O)O)CC4)n4ncnc(N)c34)[nH]c12 [OSI-027] (partner 0.5 µM)
In short: (§1)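 Values are medians from duplicate plates. Each reflects relative viability, defined as the nuclei count of treated wells over that of vehicle wells. Lung cancer cell lines in 1536-well plates were pin-tool dosed one day after seeding with one drug alone or with a fixed anchor-drug dose plus five library-drug doses (not always all listed) in √10 steps, then fixed, stained and imaged at 4× after 5 days.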

[2] = compound: C1CC(C1)(C(=O)O)C(=O)O.[NH2-].[NH2-].[Pt+2] [Carboplatin] + O=C(CCCCCCC(=O)Nc1ccccc1)NO [Vorinostat] (partner 1 µM)
In short: as §1

[3] = compound: CC[C@H](C)N1C=C(C2=C(C=C(C=C21)C3=CN=C(C=C3)N4CCNCC4)C(=O)NCC5=C(C=C(NC5=O)C)C)C [GSK126] + COc1cccc2cc(-c3nc([C@H]4CC[C@H](C(=O)O)CC4)n4ncnc(N)c34)[nH]c12 [OSI-027] (partner 0.5 µM)
In short: as §1

[4] = compound: NS(=O)(=O)OC[C@@H]1C[C@@H](n2ccc3c(N[C@H]4CCc5ccccc54)ncnc32)C[C@@H]1O [MLN4924] + Cc1nc(NC(=O)N2CCC[C@H]2C(N)=O)sc1-c1ccnc(C(C)(C)C(F)(F)F)c1 [Alpelisib] (partner 2 µM)
In short: as §1

Row | Cell Line | relative viability ([1]; first compound 0.08 µM) | relative viability ([1]; first compound 0.253 µM) | relative viability ([1]; first compound 0.8 µM) | relative viability ([1]; first compound 2.53 µM) | relative viability ([1]; first compound 8 µM) | relative viability ([2]; first compound 0.08 µM) | relative viability ([2]; first compound 0.253 µM) | relative viability ([2]; first compound 0.8 µM) | relative viability ([2]; first compound 2.53 µM) | relative viability ([2]; first compound 8 µM) | relative viability ([3]; first compound 0.08 µM) | relative viability ([3]; first compound 0.253 µM) | relative viability ([3]; first compound 0.8 µM) | relative viability ([3]; first compound 2.53 µM) | relative viability ([3]; first compound 8 µM) | relative viability ([4]; first compound 0.04 µM) | relative viability ([4]; first compound 0.1265 µM) | relative viability ([4]; first compound 0.4 µM) | relative viability ([4]; first compound 1.265 µM) | relative viability ([4]; first compound 4 µM)
1 | NCI-H1755 | 0.823 | 0.786 | 0.712 | 0.729 | 0.74 | 0.793 | 0.834 | 0.874 | 0.722 | 0.685 | 0.747 | 0.725 | 0.75 | 0.8 | 0.689 | 0.835 | 0.638 | 0.475 | 0.172 | 0.145
2 | NCI-H1651 | 0.734 | 0.662 | 0.706 | 0.506 | 0.487 | 0.617 | 0.556 | 0.588 | 0.524 | 0.483 | 0.718 | 0.755 | 0.699 | 0.789 | 0.697 | 1.11 | 0.961 | 0.793 | 0.362 | 0.168
3 | NCI-H650 | 0.526 | 0.514 | 0.601 | 0.539 | 0.356 | 0.504 | 0.457 | 0.503 | 0.366 | 0.275 | 0.49 | 0.529 | 0.489 | 0.497 | 0.583 | 1.06 | 0.513 | 0.339 | 0.204 | 0.232
4 | LK-2 | 0.262 | 0.191 | 0.21 | 0.184 | 0.226 | 0.154 | 0.299 | 0.273 | 0.306 | 0.31 | 0.168 | 0.245 | 0.212 | 0.282 | 0.303 | 0.991 | 0.886 | 0.667 | 0.267 | 0.299
